Series [1] in a line: Critical micellar concentration of the compound.
The nature of series [2]: Displacement of C27-Aib-lucifer yellow from HIV1 envelope glycoprotein gp41 Fe(env3.0)3 receptor by fluorescence assay. More on the design: species or system Human immunodeficiency virus 1.
Series [3] can be described thus: Displacement of C32-Aib-fluorescein from HIV1 envelope glycoprotein gp41 Fe(env5.0)3 receptor by fluorescence assay. More on the design: species or system Human immunodeficiency virus 1.

Consider `CCCCCCCCCCCCOS(=O)(=O)[O-].[Na+]` [SODIUM LAURYL SULFATE], for which the CMC in series [1] was determined as 2000 µM. Same read-out and setting: the result for `CCCCCCCCCCCCCCCCS(=O)(=O)[O-].[Na+]` reads “<= 100 uM”. By Ki is commonly meant the dissociation constant of the complex between target and ligand, obtained from inhibition or displacement. For the compound `CC[C@@H](C)[C@H](NC(=O)[C@H](CCC(=O)O)NC(=O)[C@H](CCCNC(=N)N)NC(=O)[C@H](CC(=O)O)NC(=O)[C@H](Cc1c[nH]c2ccccc12)NC(=O)[C@H](CCC(=O)O)NC(=O)C(C)(C)NC(=O)[C@H](Cc1c[nH]c2ccccc12)NC(=O)[C@@H](NC(=O)[C@@H](NC(=O)[C@H](Cc1cnc[nH]1)NC(=O)[C@H](CC(N)=O)NC(=O)[C@H](Cc1c[nH]c2ccccc12)NC(=O)C(C)(C)NC(=O)[C@H](CCC(N)=O)NC(=O)[C@H](CCC(=O)O)NC(=O)[C@H](CC(C)C)NC(=O)[C@H](CO)NC(=O)[C@H](CCCCN)NC(C)=O)[C@@H](C)O)[C@@H](C)O)C(=O)NC(C)(C)C(=O)N[C@@H](CC(N)=O)C(=O)N[C@@H](Cc1ccc(O)cc1)C(=O)N[C@H](C(=O)N[C@@H](CO)C(=O)N[C@@H](CC(C)C)C(=O)N[C@H](C(=O)N[C@@H](CS)C(N)=O)[C@@H](C)CC)[C@@H](C)O`, affinity in series [2] was put at a Ki of 1200 nM. Turning to `CCCCCCCCCCCC(=O)[O-].[Na+]` [SODIUM DODECANOATE], the CMC in series [1] worked out at 2500 µM. On the same count and under the same terms, then `CCCCCCCCCCCCS(=O)(=O)[O-].[Na+]`, with 5000 µM; and `CCCCCCCCCCS(=O)(=O)[O-].[Na+]`, with 25000 µM; and `CCCCCCCCOS(=O)(=O)[O-].[Na+]` [SODIUM OCTYL SULFATE], with 30000 µM. Same read-out and setting: the result for `CCCCCCCCCCCCCOS(=O)(=O)[O-].[Na+]` [SODIUM TRIDECYL SULFATE] reads 600 µM. `CC[C@H](C)[C@H](NC(=O)[C@H](C)NC(=O)[C@H](CCCNC(=N)N)NC(=O)[C@H](CC(=O)O)NC(=O)[C@H](Cc1c[nH]c2ccccc12)NC(=O)[C@H](C)NC(=O)[C@H](CCC(=O)O)NC(=O)[C@H](Cc1c[nH]c2ccccc12)NC(=O)[C@@H](NC(=O)[C@@H](NC(C)=O)[C@H](C)O)[C@H](C)O)C(=O)N[C@@H](C)C(=O)N[C@@H](CCC(=O)O)C(=O)N[C@@H](Cc1ccc(O)cc1)C(=O)N[C@@H](C)C(=O)N[C@@H](C)C(=O)N[C@@H](CCCNC(=N)N)C(=O)N[C@H](C(=O)N[C@@H](CCC(=O)O)C(=O)N[C@@H](C)C(=O)N[C@@H](CC(C)C)C(=O)N[C@H](C(=O)N[C@@H](CCCNC(=N)N)C(=O)N[C@@H](C)C(=O)N[C@@H](C)C(=O)N[C@@H](CCC(N)=O)C(=O)N[C@@H](CCC(=O)O)C(=O)N[C@@H](CCC(N)=O)C(=O)N[C@@H](CCC(N)=O)C(=O)N[C@@H](CCC(=O)O)C(=O)N[C@@H](CCCCN)C(=O)N[C@@H](CC(N)=O)C(=O)N[C@@H](CS)C(N)=O)[C@@H](C)CC)[C@@H](C)CC` displayed an inhibitory constant (Ki) in series [3] of 7 nM. For the compound `CCCCCCCC(=O)[O-].[Na+]` [SODIUM CAPRYLATE], in series [1], the CMC amounted to 200000 µM. On the same count and under the same terms, then `CCCCCCCCS(=O)(=O)[O-].[Na+]`, with greater than 250000 µM; and `CCCCCCCCCCCCCCS(=O)(=O)[O-].[Na+]`, with 600 µM; and `CCCCCCCCCCOS(=O)(=O)[O-].[Na+]` [SODIUM DECYL SULFATE], with 15000 µM.

`CCCCC(CC)CCC(CC(C)C)OS(=O)(=O)[O-].[Na+]` (stereo not given) [SODIUM TETRADECYL SULFATE]: in series [1], the CMC came out at 150 µM. In series [1], `CCCCCCCCCCCCCCCCCCOS(=O)(=O)[O-].[Na+]` [SODIUM OCTADECYL SULFATE] registered a CMC of less than 100 µM.

These data come from ChEMBL document CHEMBL1158461, “The role of amphiphilicity and negative charge in glycoprotein 41 interactions in the hydrophobic pocket” (J Med Chem, 2009).
